The test addresses T1, human GLP-1 receptor (Homo sapiens, UniProt P43220).
T1 construct: expressed in transfected cells
Kind of test: GLP-1R cAMP assay (cAMP accumulation in CHO cells stably overexpressing the human GLP-1 receptor, HitHunter kit). Particulars: CHO cells stably overexpressing human GLP-1R, 30 min, 20-point dose response in triplicate. It counts as cell-based. As for the experimental part: CAMP accumulation was measured in Chinese hamster ovary (CHO) cells (10,000 cells/well) stably overexpressing the human GLP-1 receptor using the HitHunter CAMP Assay for Small Molecules Kit (Eurofins). Briefly, cells were grown in Ham's F12 Nutrient Mix with 10% FBS, and lifted with Cell Dissociation Buffer, Enzyme free, PBS based (ThermoFisher). Cells were pelleted, and resuspended in Hank's buffered saline solution with 10 mM HEPES, and 625 μM 3-isobutyl-1-methylxanthine. The anti-cAMP antibody reagent was then added to cells at a 1:2 ratio and 5 μL of mixture was seeded in 384-well small volume white assay plates, at 10,000 cells/well. Cells were then treated with 50 nL compound using an ECHO 550 acoustic dispenser (Labcyte) in a 20-point dose response format in triplicate for 30 min. Cells were then lysed, and detection reagents added according to the manufacturer's protocol. After overnight incubation, luminescence was measured using a Perkin Elmer Envision plate reader. Dose response curves were analyzed using GraphPad Prism 9.0.
In the Table, EC50 values are designated as follows: • A: 0 nM<EC50<0.1 nM; • B: 0.1 nM≤EC50<1.0 nM; • C: 1.0 nM≤EC50<10.0 nM; • D: 10.0 nM≤EC50<100 nM; • E: 100 nM≤EC50<500 nM; and • F: ≥500 nM

pEC50: −log10 of the molar value. Where only a bound is given, the exact number is not on record here.

For orientation: pEC50 means the EC50 on a negative log10 scale, so that one unit is a factor of ten. Read a high pEC50 as a small EC50.

T1 sequence (P43220 24-463): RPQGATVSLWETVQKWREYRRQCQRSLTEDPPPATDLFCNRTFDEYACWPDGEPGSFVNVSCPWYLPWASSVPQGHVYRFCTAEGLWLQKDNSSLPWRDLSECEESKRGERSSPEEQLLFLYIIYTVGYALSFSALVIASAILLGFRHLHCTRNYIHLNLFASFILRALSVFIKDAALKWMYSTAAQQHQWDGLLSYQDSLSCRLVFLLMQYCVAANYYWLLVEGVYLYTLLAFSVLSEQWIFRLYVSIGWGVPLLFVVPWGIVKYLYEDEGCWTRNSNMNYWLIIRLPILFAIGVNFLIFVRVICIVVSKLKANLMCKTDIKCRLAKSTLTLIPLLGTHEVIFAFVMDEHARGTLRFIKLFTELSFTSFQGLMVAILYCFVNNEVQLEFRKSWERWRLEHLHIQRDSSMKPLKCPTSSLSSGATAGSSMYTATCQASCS

For `C[C@H](Cn1c(CN2CC[C@H](Oc3ccnc(COc4ncc(C#N)cc4F)n3)C[C@@H]2C)nc2ccc(C(=O)O)cc21)OC(F)F` [Compound 626, 2-(((2S,4S)-4-((2-(((5-cyano-3-fluoropyridin-2-yl)oxy)methyl)pyrimidin-4-yl)oxy)-2-methylpiperidin-1-yl)methyl)-1-((R)-2-(difluoromethoxy)propyl)-1H-benzo[d]imidazole-6-carboxylic acid], the pEC50 is 9.00 to 10.00.
With `C[C@H]1C[C@@H](Oc2ccnc(COc3ccc(F)cc3F)n2)CCN1Cc1nc2cc(F)c(C(=O)O)cc2n1C[C@@H]1CCO1` [Compound 572, 2-{[(2S,4S)-4-({2-[(2,4-di-fluorophenoxy)methyl]pyrimidin-4-yl}oxy)-2-methylpiperidin-1-yl]methyl}-5-fluoro-1-{[(2S)-oxetan-2-yl]methyl}-1H-1,3-benzodiazole-6-carboxylic acid], the pEC50 was 9.00 to 10.00.
In turn, `C[C@H]1C[C@@H](Oc2ccnc(COc3ccc(F)cc3F)n2)CCN1Cc1nc2ccc(C(=O)O)cc2n1C[C@H]1CCS1(=O)=O` [Compound 610, 2-(((2S,4S)-4-((2-((2,4-difluorophenoxy)methyl)pyrimidin-4-yl)oxy)-2-methylpiperidin-1-yl)methyl)-1-(((R)-1,1-dioxidothietan-2-yl)methyl)-1H-benzo[d]imidazole-6-carboxylic acid] showed a pEC50 of 9.00 to 10.00.
Under `C[C@H]1C[C@@H](Oc2ccnc(COc3ccc(F)cc3F)n2)CCN1Cc1nc2ccc(C(=O)NS(C)(=O)=O)cc2n1C[C@@H]1CCO1` [Compound 563, 2-(((2S,4S)-4-((2-((2,4-Difluorophenoxy)methyl)pyrimidin-4-yl)oxy)-2-methylpiperidin-1-yl)methyl)-N-(methylsulfonyl)-1-(((S)-oxetan-2-yl)methyl)-1H-benzo[d]imidazole-6-carboxamide] stands 9.00 to 10.00.
As for `C[C@H]1C[C@@H](Oc2ccnc(COc3ncc(F)cc3C#N)n2)CCN1Cc1nc2c(F)cc(C(=O)O)cc2n1C[C@@H]1CCO1` [Compound 629, 2-(((2S,4S)-4-((2-(((3-cyano-5-fluoropyridin-2-yl)oxy)methyl)pyrimidin-4-yl)oxy)-2-methylpiperidin-1-yl)methyl)-4-fluoro-1-(((S)-oxetan-2-yl)methyl)-1H-benzo[d]imidazole-6-carboxylic acid], the pEC50 is over 10.00.
`C[C@H]1C[C@@H](Oc2ccnc(COc3ccc(F)cc3F)n2)CCN1Cc1nc2ccc(C(=O)O)cc2n1CC1(C(F)F)COC1` [Compound 583, 1-{[3-(difluoromethyl)oxetan-3-yl]methyl}-2-{[(2S,4S)-4-({2-[(2,4-difluorophenoxy)methyl]pyrimidin-4-yl}oxy)-2-methylpiperidin-1-yl]methyl}-1H-1,3-benzodiazole-6-carboxylic acid] had a pEC50 of 9.00 to 10.00.
Under `C[C@H]1C[C@@H](Oc2ccnc(COc3ccc(F)cc3F)n2)CCN1Cc1nc2ccc(CC(=O)O)cc2n1C[C@@H]1CCO1` [Compound 637, 2-(2-(((2S,4S)-4-((2-((2,4-difluorophenoxy)methyl)pyrimidin-4-yl)oxy)-2-methylpiperidin-1-yl)methyl)-1-(((S)-oxetan-2-yl)methyl)-1H-benzo[d]imidazol-6-yl) acetic acid] stands 8.00 to 9.00.
Regarding `N#Cc1ccc(OCc2nccc(O[C@H]3CCN(Cc4nc5ccc(C(=O)O)cc5n4C[C@@H]4CCO4)C[C@@H]3F)n2)c(F)c1` [Compound 553, 2-{[(3S,4S)-4-({2-[(4-cyano-2-fluorophenoxy)methyl]pyrimidin-4-yl}oxy)-3-fluoropiperidin-1-yl]methyl}-1-{[(2S)-oxetan-2-yl]methyl}-1H-1,3-benzodiazole-6-carboxylic acid], the pEC50 is 9.00 to 10.00.
Under `CC[C@H]1C[C@@H](Oc2ccnc(COc3ccc(C#N)cc3F)n2)CCN1Cc1nc2ccc(C(=O)O)cc2n1C[C@@H]1CCO1` [Compound 587, 2-{[(2S,4S)-4-({2-[(4-Cyano-2-fluorophenoxy)methyl]pyrimidin-4-yl}oxy)-2-ethylpiperidin-1-yl]methyl}-1-{[(2S)-oxetan-2-yl]methyl}-1H-1,3-benzodiazole-6-carboxylic acid] stands over 10.00; under `C[C@H]1C[C@@H](Oc2ccnc(COc3ncc(C#N)cc3F)c2)CCN1Cc1nc2c(F)cc(C(=O)O)cc2n1C[C@@H]1CCO1` [Compound 625, 2-(((2S,4S)-4-((2-(((5-Cyano-3-fluoropyridin-2-yl)oxy)methyl)pyridin-4-yl)oxy)-2-methylpiperidin-1-yl)methyl)-4-fluoro-1-(((S)-oxetan-2-yl)methyl)-1H-benzo[d]imidazole-6-carboxylic acid], 8.00 to 9.00.
Under `C[C@H]1C[C@@H](Oc2ccnc(COc3ncc(F)cc3F)n2)CCN1Cc1nc2c(F)cc(C(=O)O)cc2n1C[C@@H]1CCCO1` [Compound 622, 2-(((2S,4S)-4-((2-(((3,5-Difluoropyridin-2-yl)oxy)methyl)pyrimidin-4-yl)oxy)-2-methylpiperidin-1-yl)methyl)-4-fluoro-1-(((S)-tetrahydrofuran-2-yl)methyl)-1H-benzo[d]imidazole-6-carboxylic acid] stands 9.00 to 10.00; under `C[C@H]1C[C@@H](Oc2nc(COc3ccc(F)cc3F)ncc2F)CCN1Cc1nc2ccc(C(=O)O)cc2n1C[C@@H]1CCO1` [Compound 581, 2-{[(2S,4S)-4-({2-[(2,4-difluorophenoxy)methyl]-5-fluoropyrimidin-4-yl}oxy)-2-methylpiperidin-1-yl]methyl}-1-{[(2S)-oxetan-2-yl]methyl}-1H-1,3-benzodiazole-6-carboxylic acid], over 10.00; under `N#Cc1ccc(OCc2nccc(OC3CCC4(CC3)CC4c3nc4ccc(C(=O)O)cc4n3C[C@@H]3CCO3)n2)c(F)c1` (stereo partly drawn) [Compound 571, 2-(6-((2-((4-Cyano-2-fluorophenoxy)methyl)pyrimidin-4-yl)oxy)spiro[2.5]octan-1-yl)-1-(((S)-oxetan-2-yl)methyl)-1H-benzo[d]imidazole-6-carboxylic acid], 7.00 to 8.00.
In the case of `C[C@H]1C[C@@H](Oc2ccnc(COc3ccc(F)cc3C#N)n2)CCN1Cc1nc2ccc(C(=O)NO)cc2n1C[C@@H]1CCO1` [Compound 560, 2-{[(2S,4S)-4-({2-[(2-Cyano-4-fluorophenoxy)methyl]pyrimidin-4-yl}oxy)-2-methylpiperidin-1-yl]methyl}-N-hydroxy-1-{[(2S)-oxetan-2-yl]methyl}-1H-1,3-benzodiazole-6-carboxamide], the pEC50 is 9.00 to 10.00.
Molecule `C[C@H]1C[C@@H](Oc2ccnc(COc3ccc(C#N)cc3F)n2)CCN1Cc1nc2ccc(C(=O)O)cc2n1C[C@@H]1CCOC1` [Compound 578, 2-{[(2S,4S)-4-({2-[(4-cyano-2-fluorophenoxy)methyl]pyrimidin-4-yl}oxy)-2-methylpiperidin-1-yl]methyl}-1-{[(3S)-oxolan-3-yl]methyl}-1H-1,3-benzodiazole-6-carboxylic acid] gave a pEC50 of 9.00 to 10.00.
Under `C[C@H](Cn1c(CN2CC[C@H](Oc3ccnc(COc4ccc(F)cc4F)n3)C[C@@H]2C)nc2ccc(C(=O)O)cc21)OC(F)F` [Compound 592, 1-[(2R)-2-(Difluoromethoxy)propyl]-2-{[(2S,4S)-4-({2-[(2,4-difluorophenoxy)methyl]pyrimidin-4-yl}oxy)-2-methylpiperidin-1-yl]methyl}-1H-1,3-benzodiazole-6-carboxylic acid] stands over 10.00.

(Values after patent publication US20260317309A1, “N-HETEROCYLIC GPCR RECEPTOR AGONISTS, PHARMACEUTICAL COMPOSITIONS COMPRISING THE SAME, AND METHODS FOR THEIR USE” (Carmot Therapeutics, Inc., priority 2022, published 2026).)
